The target of test [1] is Voltage-gated inwardly rectifying potassium channel KCNH2 (Homo sapiens, UniProt Q12809). Description: Inhibition of hERG. It is filed as toxicity.
A short description of test [2]: Antiproliferative activity against mouse BaF3/TRP-Met cells.
Test [3] has as its system Escherichia coli. Description: Antibacterial activity against Escherichia coli assessed as zone of inhibition at 400 ug/ml by agar disk diffusion method. The settings on record: read-out: IZ. The format is functional.
The test system of test [4] is Escherichia coli. Briefly: Antibacterial activity against Escherichia coli assessed as zone of inhibition at 600 ug/ml by agar disk diffusion method. The format is functional. The settings on record: read-out: IZ.
Test [5] has as its system Bacillus subtilis. Briefly: Antibacterial activity against Bacillus subtilis assessed as diameter of zone of inhibition at 400 ug/ml by agar disk diffusion method. The format is functional. The settings on record: read-out: IZ.
The subject of test [6] is Bacillus subtilis. Briefly: Antibacterial activity against Bacillus subtilis assessed as diameter of zone of inhibition at 600 ug/ml by agar disk diffusion method. The format is functional. The settings on record: read-out: IZ.
The subject of test [7] is Candida metapsilosis. Description: Antifungal activity against Candida metapsilosis assessed as zone of inhibition at 35 ug/ml by disc diffusion method. The format is functional. Particulars: Lodderomyces metapsilosis, read-out: IZ.
The test system of test [8] is Aspergillus niger. Briefly: Antifungal activity against Aspergillus niger assessed as zone of inhibition at 35 ug/ml by disc diffusion method. The format is functional. Particulars: read-out: IZ.
In test [9] the test system is Escherichia coli. Description: Antibacterial activity against Escherichia coli assessed as zone of inhibition at 25 ug/ml by agar disc diffusion method. It is filed as functional. The settings on record: read-out: IZ.
Test [10] concerns Staphylococcus aureus. Briefly: Antibacterial activity against Staphylococcus aureus assessed as zone of inhibition at 25 ug/ml by agar disc diffusion method. The settings on record: read-out: IZ. It is filed as functional.
The test system of test [11] is Aspergillus niger. Briefly: Antifungal activity against Aspergillus niger assessed as zone of inhibition at 10 ug/ml by disc diffusion method. It is filed as functional. Particulars: read-out: IZ.
Test [12] relates to Staphylococcus aureus. Description: Antibacterial activity against Staphylococcus aureus assessed as zone of inhibition at 35 ug/ml by agar disc diffusion method. It is filed as functional. Particulars: read-out: IZ.
Test [13] relates to Escherichia coli. Briefly: Antibacterial activity against Escherichia coli assessed as zone of inhibition at 35 ug/ml by agar disc diffusion method. The format is functional. Particulars: read-out: IZ.
Test [14] relates to Staphylococcus aureus. Description: Antibacterial activity against Staphylococcus aureus assessed as zone of inhibition at 10 ug/ml by agar disc diffusion method. It is filed as functional. Particulars: read-out: IZ.
Test [15] has as its system Escherichia coli. Briefly: Antibacterial activity against Escherichia coli assessed as zone of inhibition at 10 ug/ml by agar disc diffusion method. It is filed as functional. Particulars: read-out: IZ.
Test [16] has as its system Candida metapsilosis. Description: Antifungal activity against Candida metapsilosis assessed as zone of inhibition at 10 ug/ml by disc diffusion method. It is filed as functional. The settings on record: Lodderomyces metapsilosis, read-out: IZ.
Test [17] deals with Candida metapsilosis. Description: Antifungal activity against Candida metapsilosis assessed as zone of inhibition at 25 ug/ml by disc diffusion method. The format is functional. Particulars: Lodderomyces metapsilosis, read-out: IZ.
The test system of test [18] is Aspergillus niger. Briefly: Antifungal activity against Aspergillus niger assessed as zone of inhibition at 25 ug/ml by disc diffusion method. The format is functional. Particulars: read-out: IZ.
Test [19] concerns Staphylococcus aureus. Briefly: Antibacterial activity against Staphylococcus aureus assessed as zone of inhibition at 250 ug/ml by agar disc diffusion method. The settings on record: read-out: IZ. It is filed as functional.
Test [20] relates to Bacillus subtilis. Briefly: Antibacterial activity against Bacillus subtilis assessed as zone of inhibition at 150 ug/ml by agar disc diffusion method. Particulars: read-out: IZ. The format is functional.
Test [21] deals with Staphylococcus aureus. Description: Antibacterial activity against Staphylococcus aureus assessed as zone of inhibition at 200 ug/ml by agar disc diffusion method. Particulars: read-out: IZ. It is filed as functional.
The test system of test [22] is Escherichia coli. Description: Antibacterial activity against Escherichia coli assessed as zone of inhibition at 150 ug/ml by agar disc diffusion method. The format is functional. The settings on record: read-out: IZ.
The test system of test [23] is Bacillus subtilis. Briefly: Antibacterial activity against Bacillus subtilis assessed as zone of inhibition at 200 ug/ml by agar disc diffusion method. The settings on record: read-out: IZ. It is filed as functional.
Test [24] concerns Staphylococcus aureus. Description: Antibacterial activity against Staphylococcus aureus assessed as zone of inhibition at 150 ug/ml by agar disc diffusion method. The format is functional. Particulars: read-out: IZ.
Test [25] relates to Escherichia coli. Briefly: Antibacterial activity against Escherichia coli assessed as zone of inhibition at 250 ug/ml by agar disc diffusion method. It is filed as functional. The settings on record: read-out: IZ.
Test [26] has as its system Bacillus subtilis. Briefly: Antibacterial activity against Bacillus subtilis assessed as zone of inhibition at 250 ug/ml by agar disc diffusion method. It is filed as functional. The settings on record: read-out: IZ.
Test [27] deals with Pseudomonas aeruginosa. Briefly: Antibacterial activity against Pseudomonas aeruginosa assessed as zone of inhibition at 150 ug/ml by agar disc diffusion method. The format is functional. Particulars: read-out: IZ.
The test system of test [28] is Pseudomonas aeruginosa. Description: Antibacterial activity against Pseudomonas aeruginosa assessed as zone of inhibition at 250 ug/ml by agar disc diffusion method. It is filed as functional. Particulars: read-out: IZ.
Test [29] has as its system Escherichia coli. Description: Antibacterial activity against Escherichia coli assessed as zone of inhibition at 200 ug/ml by agar disc diffusion method. The settings on record: read-out: IZ. It is filed as functional.
The test system of test [30] is Pseudomonas aeruginosa. Briefly: Antibacterial activity against Pseudomonas aeruginosa assessed as zone of inhibition at 200 ug/ml by agar disc diffusion method. Particulars: read-out: IZ. The format is functional.
The subject of test [31] is Escherichia coli. Description: Antibacterial activity against Escherichia coli assessed as zone of inhibition at 35 ug/ml by agar well diffusion method. The format is functional. The settings on record: read-out: IZ.
The subject of test [32] is Staphylococcus aureus. Briefly: Antibacterial activity against Staphylococcus aureus assessed as zone of inhibition at 10 ug/ml by agar well diffusion method. The format is functional. The settings on record: read-out: IZ.
The subject of test [33] is Escherichia coli. Description: Antibacterial activity against Escherichia coli assessed as zone of inhibition at 25 ug/ml by agar well diffusion method. It is filed as functional. The settings on record: read-out: IZ.
In test [34] the test system is Escherichia coli. Description: Antibacterial activity against Escherichia coli assessed as zone of inhibition at 10 ug/ml by agar well diffusion method. The format is functional. The settings on record: read-out: IZ.
Test [35] has as its system Staphylococcus aureus. Briefly: Antibacterial activity against Staphylococcus aureus assessed as zone of inhibition at 35 ug/ml by agar well diffusion method. It is filed as functional. The settings on record: read-out: IZ.
In test [36] the test system is Staphylococcus aureus. Description: Antibacterial activity against Staphylococcus aureus assessed as zone of inhibition at 25 ug/ml by agar well diffusion method. It is filed as functional. Particulars: read-out: IZ.
Test [37] relates to Hepatitis C virus. Description: Antiviral activity against Hepatitis C virus genotype 2a infected in human Huh-7 cells assessed as reduction in viral infection. It is filed as functional, organism-based, Hepacivirus hominis.
Test [38] concerns Chikungunya virus. Briefly: Antiviral activity against Chikungunya virus infected in Vero E6 cells assessed as inhibition of virus-induced cytopathic effect incubated for 72 hrs by CellTiter Glo luminescence assay. It is filed as functional, organism-based. Particulars: Vero C1008, 72 h.
In test [39] the test system is Aphis craccivora. Description: Anti-insecticidal activity against Aphis craccivora. It is filed as functional.

The values below come from ChEMBL document CHEMBL6109108, “A comprehensive review of fused imidazonaphthyridine derivatives: Synthetic approaches and biological applications” (Bioorg Med Chem, 2025).

A value given as a limit tells only on which side of the number the result lay.

Sequence of Voltage-gated inwardly rectifying potassium channel KCNH2 (Q12809 whole entry): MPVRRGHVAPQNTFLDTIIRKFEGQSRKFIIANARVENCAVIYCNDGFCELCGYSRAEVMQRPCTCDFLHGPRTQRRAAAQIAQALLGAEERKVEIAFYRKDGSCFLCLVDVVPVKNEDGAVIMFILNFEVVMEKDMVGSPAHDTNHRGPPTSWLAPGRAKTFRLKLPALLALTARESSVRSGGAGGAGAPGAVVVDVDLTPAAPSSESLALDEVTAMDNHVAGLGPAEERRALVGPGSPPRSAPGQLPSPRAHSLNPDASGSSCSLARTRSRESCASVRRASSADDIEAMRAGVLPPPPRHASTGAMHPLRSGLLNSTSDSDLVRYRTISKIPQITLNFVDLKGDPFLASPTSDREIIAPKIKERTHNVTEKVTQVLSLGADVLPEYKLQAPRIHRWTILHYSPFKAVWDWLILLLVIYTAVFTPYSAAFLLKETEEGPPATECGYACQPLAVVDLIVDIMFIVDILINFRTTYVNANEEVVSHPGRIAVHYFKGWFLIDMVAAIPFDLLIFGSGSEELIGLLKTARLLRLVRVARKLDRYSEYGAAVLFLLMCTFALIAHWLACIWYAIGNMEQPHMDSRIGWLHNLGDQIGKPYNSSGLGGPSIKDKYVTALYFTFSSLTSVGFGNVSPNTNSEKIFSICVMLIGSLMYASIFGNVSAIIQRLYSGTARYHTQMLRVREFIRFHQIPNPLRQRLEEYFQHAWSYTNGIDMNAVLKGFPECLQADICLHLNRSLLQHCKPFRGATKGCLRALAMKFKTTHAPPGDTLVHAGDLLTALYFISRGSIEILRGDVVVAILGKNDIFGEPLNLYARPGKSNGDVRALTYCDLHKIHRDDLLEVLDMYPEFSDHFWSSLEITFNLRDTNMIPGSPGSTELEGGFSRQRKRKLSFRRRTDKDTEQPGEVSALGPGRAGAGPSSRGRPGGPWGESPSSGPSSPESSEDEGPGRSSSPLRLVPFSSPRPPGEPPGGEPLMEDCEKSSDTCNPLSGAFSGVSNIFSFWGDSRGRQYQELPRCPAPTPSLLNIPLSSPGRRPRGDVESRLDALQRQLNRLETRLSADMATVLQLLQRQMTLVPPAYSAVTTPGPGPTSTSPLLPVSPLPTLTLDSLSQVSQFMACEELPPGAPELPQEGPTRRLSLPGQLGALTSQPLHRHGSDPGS

In [1], `Cc1cc(C)c2ccc3nc(-c4ccccc4)c(CN4CCCC4)n3c2n1` yielded an IC50 of 92200 nM.
For the molecule `N[C@H]1CC[C@H](n2c(=O)n(Cc3ccc(Cl)c(Cl)c3)c3nc(Oc4ccc(C(=O)N5CCCCC5)cc4)c4cccnc4c32)CC1`, in test [2], the IC50 was < 1000 nM.
As to `COc1ccc(-c2cc3cccnc3n3c2nc2ccccc23)cc1`, the zone of inhibition at 400 µg/mL amounted to 11.5 mm in test [3] and 7.5 mm in [5]. Moreover, the zone of inhibition at 600 µg/mL in test [4] worked out at 12.5 mm; in test [6] it was 8.5 mm.
For `O=[N+]([O-])c1cccc(-c2cc3cccnc3n3c(-c4ccc(Cl)cc4)cnc23)c1`, the zone of inhibition at 35 µg/mL in [7] was determined as 28 mm; in test [8] it was 28 mm; in [12], 29 mm; in test [13], 30 mm. Further, the zone of inhibition at 25 µg/mL in [9] stood at 20 mm; in [10], 19 mm; in test [17] it was 17 mm; in [18], 20 mm. The zone of inhibition at 10 µg/mL in test [11] came out at 7 mm; in test [14], 8 mm; in test [15], 8 mm; in test [16], 7 mm.
Take `Oc1ccc2nc3c(-c4ccccc4C(F)(F)F)cc4cccnc4n3c2c1`: the zone of inhibition at 250 µg/mL in test [19] was 22 mm; in test [25], 22 mm; in test [26] it was 23 mm; in [28], 22 mm. Also, the zone of inhibition at 150 µg/mL was determined as 16 mm in test [20], 17 mm in test [22], 18 mm in test [24] and 17 mm in test [27]. Further, the zone of inhibition at 200 µg/mL in test [21] turned out to be 20 mm; in test [23], 19 mm; in test [29] it was 22 mm; in test [30], 20 mm.
Regarding `O=c1oc2ccccc2cc1-c1cnc2c(-c3cccc(O)c3)cc3cccnc3n12`, the zone of inhibition at 35 µg/mL amounted to 28 mm in test [7], 28 mm in test [8], 31 mm in [12] and 32 mm in [13]. The zone of inhibition at 25 µg/mL was found to be 2 mm in test [9], 19 mm in test [10], 17 mm in test [17] and 20 mm in test [18]. The zone of inhibition at 10 µg/mL in test [11] is 7 mm; in test [14], 8 mm; in test [15], 8 mm; in test [16], 7 mm.
`Fc1ccc(-c2cc3cccnc3n3c(-c4ccc(Cl)cc4)cnc23)c(Cl)c1`: the zone of inhibition at 35 µg/mL came out at 25 mm in test [31] and 24 mm in test [35]. The zone of inhibition at 10 µg/mL in test [32] and in [34] was 6 mm each time. For the same molecule, the zone of inhibition at 25 µg/mL in test [33] and in test [36] was 16 mm in each case.
Turning to `Cc1cccc(-c2cnc3ccc4c(C(F)(F)F)cc(C(F)(F)F)nc4n23)c1`, the EC50 in test [37] is 2600 nM.
In the case of `FC(F)(F)c1cc(C(F)(F)F)c2ccc3nc(-c4nnco4)cn3c2n1`, in test [38], the EC50 is 203 nM.
In test [39], `N#Cc1c(N)nc2c(c1N)C(c1ccc(C(F)(F)F)cc1)C([N+](=O)[O-])=C1N(Cc3ccc(Cl)nc3)CCN12` (centres undefined) showed an LC50 of 31 nM. This counts as double-digit nanomolar.
The molecule `COc1ccc(-c2nc3ccc4c(C)cc(C)nc4n3c2CN2CCC(C)CC2)cc1` registered an IC50 in [1] of 1120 nM. In other words, the single-digit micromolar range.
As to `O=[N+]([O-])c1cccc(-c2cnc3c(-c4ccc(F)cc4Cl)cc4cccnc4n23)c1`, the zone of inhibition at 35 µg/mL in test [31] came out at 25 mm; in test [35] it was 24 mm. Also, the zone of inhibition at 10 µg/mL in [32] and in test [34] was 6 mm throughout. The zone of inhibition at 25 µg/mL in test [33] and in test [36] was 16 mm each time.
For the molecule `COc1ccc(-c2cc3c(C(F)(F)F)cc(C(F)(F)F)nc3n3c(-c4ccc(OC)cc4)cnc23)cc1`, in test [37], the EC50 amounted to 4100 nM.
